# Assay results as given in paper PMC8948257, “Limited solvation of an electron donating tryptophan stabilizes a photoinduced charge-separated state in plant (6–4) photolyase” (Scientific Reports, 2022).
# Positions count from the first letter of the chain named.
# Tests used:
# Type in all cases: binding
# Details in all cases: 5 mM L-cysteine, 20 mM phosphate pH 7.5, 500 mM NaCl, 10% glycerol, anaerobic, >430 nm light, on ice; native bound cofactor
# [1] = molecular target: T1, At64 ((6-4) photolyase from Arabidopsis thaliana) (Arabidopsis thaliana, UniProt O48652, H382N); test: steady-state FAD photoreduction by UV-Vis
# T1 construct: gene UVR3; pET-28a(+) NdeI/XhoI, His-tagged, expressed in E. coli C41(DE3)/pLysS; TALON and heparin purification
# T1 sequence (O48652 20-556 H382N): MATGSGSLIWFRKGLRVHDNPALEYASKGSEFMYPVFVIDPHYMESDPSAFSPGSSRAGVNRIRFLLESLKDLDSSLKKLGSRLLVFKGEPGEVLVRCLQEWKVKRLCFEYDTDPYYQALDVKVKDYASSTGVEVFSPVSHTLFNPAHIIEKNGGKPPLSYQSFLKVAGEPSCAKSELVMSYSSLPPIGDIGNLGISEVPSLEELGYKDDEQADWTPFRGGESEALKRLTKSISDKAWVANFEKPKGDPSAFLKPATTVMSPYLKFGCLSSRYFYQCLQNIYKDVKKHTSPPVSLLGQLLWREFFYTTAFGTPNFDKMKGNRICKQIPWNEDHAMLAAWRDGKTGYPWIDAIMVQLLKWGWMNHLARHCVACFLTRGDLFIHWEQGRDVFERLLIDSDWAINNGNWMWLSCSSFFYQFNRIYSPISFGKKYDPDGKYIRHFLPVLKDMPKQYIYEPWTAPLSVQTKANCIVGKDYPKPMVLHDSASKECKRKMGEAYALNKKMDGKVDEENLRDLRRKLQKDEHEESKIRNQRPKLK
# [2] = molecular target: T2, At64 ((6-4) photolyase from Arabidopsis thaliana) (Arabidopsis thaliana, UniProt O48652, H382D); test: steady-state FAD photoreduction by UV-Vis
# T2 construct: gene UVR3; pET-28a(+) NdeI/XhoI, His-tagged, expressed in E. coli C41(DE3)/pLysS; TALON and heparin purification
# T2 sequence (O48652 20-556 H382D): T1 sequence (O48652 20-556 H382N) with N363D
# [3] = molecular target: T3, At64 ((6-4) photolyase from Arabidopsis thaliana) (Arabidopsis thaliana, UniProt O48652, H382V); test: steady-state FAD photoreduction by UV-Vis
# T3 construct: gene UVR3; pET-28a(+) NdeI/XhoI, His-tagged, expressed in E. coli C41(DE3)/pLysS; TALON and heparin purification
# T3 sequence (O48652 20-556 H382V): T1 sequence (O48652 20-556 H382N) with N363V
# [4] = molecular target: T4, At64 ((6-4) photolyase from Arabidopsis thaliana) (Arabidopsis thaliana, UniProt O48652, H382Y); test: steady-state FAD photoreduction by UV-Vis
# T4 construct: gene UVR3; pET-28a(+) NdeI/XhoI, His-tagged, expressed in E. coli C41(DE3)/pLysS; TALON and heparin purification
# T4 sequence (O48652 20-556 H382Y): T1 sequence (O48652 20-556 H382N) with N363Y
# [5] = molecular target: T5, Xl64 (Xenopus laevis (6-4) PL) (Xenopus laevis, UniProt Q9I910, W370F/S372H, form not given); test: steady-state FAD photoreduction by UV-Vis
# T5 construct: gene Xl64phr; pET28a(+), expressed in E. coli; only the W370F/S372H mutant made here
# T5 sequence (Q9I910 1-526 W370F/S372H): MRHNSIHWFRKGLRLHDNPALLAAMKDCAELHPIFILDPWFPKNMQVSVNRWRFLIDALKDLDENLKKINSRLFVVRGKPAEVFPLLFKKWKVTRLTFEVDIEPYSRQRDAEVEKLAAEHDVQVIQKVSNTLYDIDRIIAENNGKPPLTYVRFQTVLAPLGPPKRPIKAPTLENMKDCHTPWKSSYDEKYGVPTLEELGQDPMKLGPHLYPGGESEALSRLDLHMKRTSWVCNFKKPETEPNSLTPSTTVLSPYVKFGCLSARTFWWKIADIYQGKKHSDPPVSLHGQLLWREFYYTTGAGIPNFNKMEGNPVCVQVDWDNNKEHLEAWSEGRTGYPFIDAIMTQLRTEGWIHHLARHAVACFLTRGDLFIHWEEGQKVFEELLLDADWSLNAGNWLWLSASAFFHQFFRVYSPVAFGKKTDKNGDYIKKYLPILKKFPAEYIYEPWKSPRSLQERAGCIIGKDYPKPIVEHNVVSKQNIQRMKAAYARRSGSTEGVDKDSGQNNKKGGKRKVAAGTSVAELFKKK
# [6] = molecular target: T6, At64 ((6-4) photolyase from Arabidopsis thaliana) (Arabidopsis thaliana, UniProt O48652, H382S); test: steady-state FAD photoreduction by UV-Vis; transient absorption
# T6 construct: gene UVR3; pET-28a(+) NdeI/XhoI, His-tagged, expressed in E. coli C41(DE3)/pLysS; TALON and heparin purification
# T6 sequence (O48652 20-556 H382S): T1 sequence (O48652 20-556 H382N) with N363S
smiles,measurement,setting,value
Cc1cc2nc3c(=O)[nH]c(=O)nc-3n(C[C@H](O)[C@H](O)[C@H](O)COP(=O)(O)OP(=O)(O)OC[C@H]3O[C@@H](n4cnc5c(N)ncnc54)[C@H](O)[C@@H]3O)c2cc1C [flavin adenine dinucleotide],steady-state FAD photoreduction by UV-Vis,[1],"we successfully purified the H382D, H382N, H382V and H382Y mutants of At64"
same,steady-state FAD photoreduction by UV-Vis,[2],"we successfully purified the H382D, H382N, H382V and H382Y mutants of At64"
same,steady-state FAD photoreduction by UV-Vis,[3],"we successfully purified the H382D, H382N, H382V and H382Y mutants of At64"
same,steady-state FAD photoreduction by UV-Vis,[4],"we successfully purified the H382D, H382N, H382V and H382Y mutants of At64"
same,steady-state FAD photoreduction by UV-Vis,[5],the W370F/S372H double mutant of Xl64 (Xl64-W370F/S372H)
same,steady-state FAD photoreduction by UV-Vis; transient absorption,[6],FAD photoreduction in At64-H382S occurred with a half-life
